Key:
[1] = test system: human Asyn (pSer129, proteinase K-resistant, total) in substantia nigra; test: Immunohistochemistry of Asyn species in substantia nigra, optical density; format: in vivo; settings: rat low cohort, 6 mg/kg i.p. daily 7 weeks
Procedure: Rats were administered unilateral injections of AAV2/5-human wild-type (WT) Asyn at titers of 2.9–4.3 × 10^11 vector genomes (vg)/mL (termed “low cohort”), which was previously shown to not induce nigral neurotoxicity [27]. Thereby, generating a model with overexpression of human WT Asyn and Asyn-mediated neuroinflammation. One week after surgery, animals were randomly selected to receive daily systemic injections of either SMM-189 (intraperitoneal (i.p.), 6 mg/kg, n = 12) or vehicle (i.p., n = 12) and followed for 8 weeks (Figs. 1; n = 2 rats per group were removed due to poor nigral targeting). […] After blood collection, animals were transcardially perfused with ice-cold PBS and the frontal cortex frozen for gene analysis, the striatum frozen for western blotting analysis, and the midbrain post-fixated in 4% PFA to be processed for immunohistochemistry. A second low cohort of rats (SMM-189 n = 6 or vehicle n = 3 with n = 2 removed due to poor nigral targeting) completed the study and provided extra tissue to perform additional immunohistochemical and western blotting analyses.
Brains were post-fixed in 4%PFA for 48 h and transferred to 30% sucrose and cut at 40 μm on a freezing microtome. In brief, endogenous peroxidase was quenched with 3% hydrogen peroxide, blocked with 8% normal serum, avidin (Vector Cat#SP-2001) and 0.1% Triton-X and incubated overnight at 4°C with biotin (Vectorlabs Cat#SP-2001), normal serum and primary antibodies specific for Asyn (Clone 4B12; BioLegend Cat# 807801, RRID: AB_2564730), pSer129 Asyn (Clone EP1536Y; Abcam Cat# ab51253, RRID: AB_869973), CD68 (Bio-Rad Cat# MCA341R, RRID: AB_2291300), MHCII (Bio-Rad Cat# MCA46GA, RRID: AB_567369), and CD163 (Bio-Rad Cat# MCA342A, RRID: AB_2074557). Tissue was incubated in appropriate biotinylated secondary antibodies (1:200), amplified with Vectastain ABC kit (Vectorlabs Cat#PK-6100) and developed with diaminobenzidine tablets or diaminobenzidine drop kit with nickel (Vector Cat#SK-4100) for CD68 immunostaining. […]

[2] = Weekly body weights of AAV2/5-human WT Asyn rats; format: in vivo, rat; settings: low and high cohorts, 6 mg/kg i.p. daily, over 8 weeks, vs vehicle
Procedure: Sprague Dawley male rats (16–18 weeks of age, 400–525 g) were purchased from Charles River Laboratories and acclimated to Emory University animal facilities. Rats were pair housed in standard plexiglass cages under normal 12-hr light cycles and handled in accordance with protocols approved by the IACUC of Emory University in Atlanta, GA. Rats were administered unilateral injections of AAV2/5-human wild-type (WT) Asyn at titers of 2.9–4.3 × 10^11 vector genomes (vg)/mL (termed “low cohort”), which was previously shown to not induce nigral neurotoxicity. Thereby, generating a model with overexpression of human WT Asyn and Asyn-mediated neuroinflammation. One week after surgery, animals were randomly selected to receive daily systemic injections of either SMM-189 (intraperitoneal (i.p.), 6 mg/kg, n = 12) or vehicle (i.p., n = 12) and followed for 8 weeks (Figs. 1; n = 2 rats per group were removed due to poor nigral targeting). The dose of SMM-189 was based on a pharmacokinetic study in mice determining therapeutic brain-blood ratios as described below. […]
An additional cohort of rats (termed “high cohort”) was evaluated to determine effects of SMM-189 on immune cell populations in the brain, resident or infiltrating, and the periphery as measured by flow cytometry (Fig. 1). […] Brains were collected at endpoints, and brain immune cells isolated and evaluated using multicolor flow cytometry. […]

[3] = test system: pSer129 and total human Asyn in striatum; test: Western immunoblot of pSer129 and total human Asyn in striatal lysates; format: in vivo; settings: rat low cohort, striatum ipsilateral to AAV, 6 mg/kg i.p. daily 7 weeks, vs vehicle
Procedure: Sprague Dawley male rats (16–18 weeks of age, 400–525 g) were purchased from Charles River Laboratories and acclimated to Emory University animal facilities. Rats were pair housed in standard plexiglass cages under normal 12-hr light cycles and handled in accordance with protocols approved by the IACUC of Emory University in Atlanta, GA. Rats were administered unilateral injections of AAV2/5-human wild-type (WT) Asyn at titers of 2.9–4.3 × 10^11 vector genomes (vg)/mL (termed “low cohort”), which was previously shown to not induce nigral neurotoxicity. Thereby, generating a model with overexpression of human WT Asyn and Asyn-mediated neuroinflammation. […]
Striatal tissue from successfully targeted low cohort rats was homogenized in ice-cold TriZOL lysed using the TissueLyser system. […] Total protein concentrations were measured using Pierce BCA Protein Assay Kit and equal amount of protein (10–20 µg) mixed with Laemmli sample buffer were loaded in 4–20% TGX precast gels (Biorad) for gel electrophoresis. […] Revert staining was captured and measured on the Licor Odyssey at 700 nm for 30 s.
Non-specific protein binding was blocked with 5% milk and 0.1% Tween-20 in TBS for 1 h at room temperature, and membranes incubated with primary antibodies overnight at 4°C. […] The density of the band was quantified using StudioLite software. […]

RAW264.7 macrophages = test: Phagocytosis assay with pHrodo green E. coli bioparticles; format: cell-based; settings: vs vehicle; for integrated density of GFP (phagocytosis of E. coli bioparticles): 100ng/mL LPS; for phagocytosis of E. coli bioparticles: 1 μg/mL LPS
Procedure: The RAW264.7 macrophage cells (ATCC Cat# TIB-71, RRID: CVCL_0493) were grown in sterile media which consisted of DMEM high glucose, 10% FBS, 2mM L-glutamine, 1x Pen-strep and 1x sodium pyruvate in a humidified 5% CO2 incubator at 37°C. RAW264.7 were maintained in […] tissue culture flasks and plated at a density of 1 × 10^4 cells in triplicate in 96-well plates for assays. Cells were stimulated with either lipopolysaccharide (LPS O111:B4; Sigma Cat#L2630) at 100ng/mL or 1000ng/mL (750EU/mL or 7500 EU/mL, respectively). One hour prior to this stimulation the cells were pre-treated with the CB2 inverse agonist SMM-189 at 3μM or 7 μm or its vehicle. Specifically for cell culture experiments, SMM-189 was formulated with 40% ethanol (v/v), 20% tween-20 (v/v) and 40% saline (v/v). A phagocytosis assay was conducted 24 h after LPS.
The phagocytosis assay was performed using pHrodo green E. coli bioparticles (Invitrogen Cat# P35366) according to the manufacturer’s instructions. Five images per well were then collected every 30 min for 24 h on an EVOS M7000 microscope (Invitrogen, ThermoFisher Scientific). The cells were maintained for this duration using an on-stage incubator kept at 37°C and 5% CO2. Analysis of the collected images was performed using EVOS Celleste software (version 5.0), which counted the cells and then measured the integrated optical density of fluorescence within each well over the 24-hour time course. Analysis was conducted on the average integrated optical density across triplicate wells. Results were consistent across duplicate experimental replicates.

O=C(c1ccccc1)c1cc(O)c(-c2cc(Cl)cc(Cl)c2)c(O)c1 [SMM-189]
total human Asyn in substantia nigra, optical density ([1]; clone 4B12, vs vehicle): not different | pS129-ir optical density in substantia nigra, normalized to vehicle ([1]; lesioned nigra): reduced | proteinase-K resistant Asyn in substantia nigra, optical density ([1]; vs vehicle): decreased | Rats weight, difference between treatment groups [2]: no significant differences | pS129 levels in striatum, western [3]: reduced | total human Asyn levels in striatum, western [3]: no differences | integrated density of GFP (phagocytosis of E. coli bioparticles) (RAW264.7 macrophages; pre-treatment 3 μm, p = 0.0024): significantly increased | integrated density of GFP (phagocytosis of E. coli bioparticles) (RAW264.7 macrophages; pre-treatment 7 μm, p < 0.0001): significantly increased | phagocytosis of E. coli bioparticles (RAW264.7 macrophages; 3 μm): intensified | phagocytosis of E. coli bioparticles (RAW264.7 macrophages; 7 μm): intensified

— paper PMC11438102, “Modulation of cannabinoid receptor 2 alters neuroinflammation and reduces formation of alpha-synuclein aggregates in a rat model of nigral synucleinopathy” (Journal of Neuroinflammation, 2024)
